{"source": "paper PMC10937556", "about": "“Phenolic phytochemistry, in vitro, in silico, in vivo, and mechanistic anti-inflammatory and antioxidant evaluations of Habenaria digitata” (Frontiers in Pharmacology, 2024)", "key": {"[1]": {"tested_on": "GSH-Px", "assay": "In vivo antioxidant: GSH-Px activity in brain, heart, liver", "conditions": "D-galactose aging mice", "procedure": "Twenty male albino mice were distributed into four groups, each with five mice. The control group (group 1) received 0.4 mL of distilled water. The compound was given in doses of 2.5, 5, and 10 mg/kg to groups 2, 3, and 4, respectively. Throughout the trial, the mice were given a daily dose for 3 weeks and were evaluated for alterations, other symptoms of toxicity, and death on a daily basis. Blood obtained by a direct heart puncture was utilized to assess the compound’s in vivo antioxidant activity 24 hours following the last dose ([Mota et al., 2023]).\nThe brain, liver, and heart homogenates were prepared in the cold saline via a homogenizer, and the unsolvable extract was discarded by centrifugation at 10,000 rpm for 15 min at temperature 4°C. After that, the supernatant was extracted immediately for GSH-Px assay ([Li et al., 2021])."}, "[2]": {"tested_on": "bradykinin-induced paw edema", "assay": "Bradykinin-induced paw edema"}, "[3]": {"assay": "DPPH free radical scavenging assay", "procedure": "The DPPH (anti-radicals) investigation was carried out according to our earlier reported protocols. Initially, a methanolic DPPH solution was prepared with a concentration of 0.1%. Subsequently, 100 µL of this solution was mixed with an equal volume of the test samples (100 µL) in 96-well plates, following a 30-min incubation period at 25°C ± 3 °C in the dark. Solutions with concentrations ranging from […] were prepared. Five concentrations of 1,000, 500, 250, 125, and 62.5 µM of the Trolox methanolic solution ([…]) were formed. A color reduction in DPPH was observed after incubation; a microplate reader was used, and absorbance was measured at 540 nm ([Mahnashi et al., 2022a]; [Huneif et al., 2022]). The percentage of scavenging was determined by the formula: Scavenging effect %=control absorbance−sample absorbance/control absorbance×100."}, "[4]": {"tested_on": "histamine-induced paw edema", "assay": "Histamine-induced paw edema", "conditions": "20 mg/kg, 2nd hour"}, "[5]": {"tested_on": "MDA", "assay": "In vivo antioxidant: MDA level", "parameters": "species or system mice", "conditions": "compound 1 (20 mg)"}, "[6]": {"assay": "ABTS free radical scavenging assay", "procedure": "The ABTS anti-radicals’ analysis was carried out according to [Shah et al. (2015)]. The ABTS solution was prepared by dissolving ABTS salt (192 mg) in distilled H2O, transferred to a flask (50 mL), and volume was adjusted. Thereafter, 1 mL of the preceding solution was added to 17 µL of K₂S₂O₈ (140 mM) and placed in the dark for 24 h s. The experiment’s ultimate ABTS dilution was achieved by mixing 1 mL of the reaction mixture with 50 mL of methanol. The ABTS solution (190 µL) was mixed with the sample solution (10 µL) and added to 96-well plates, which were then incubated at room temperature in dark for 2 h. Following incubation, the measurement of ABTS color intensity was conducted using a microplate reader at 734 nm. Positive control solutions were prepared at values of 1,000–62.5 µM. The percentage of ABTS scavenging was determined by using the following equation: % ABTS scavenging=Control−Sample/control×100."}, "[7]": {"tested_on": "leukotriene-induced paw edema", "assay": "Leukotriene-induced paw edema", "conditions": "20 mg/kg"}, "[8]": {"biological_target": "COX-1 (Ovis aries, UniProt P05979)", "sequence (P05979 25-600)": "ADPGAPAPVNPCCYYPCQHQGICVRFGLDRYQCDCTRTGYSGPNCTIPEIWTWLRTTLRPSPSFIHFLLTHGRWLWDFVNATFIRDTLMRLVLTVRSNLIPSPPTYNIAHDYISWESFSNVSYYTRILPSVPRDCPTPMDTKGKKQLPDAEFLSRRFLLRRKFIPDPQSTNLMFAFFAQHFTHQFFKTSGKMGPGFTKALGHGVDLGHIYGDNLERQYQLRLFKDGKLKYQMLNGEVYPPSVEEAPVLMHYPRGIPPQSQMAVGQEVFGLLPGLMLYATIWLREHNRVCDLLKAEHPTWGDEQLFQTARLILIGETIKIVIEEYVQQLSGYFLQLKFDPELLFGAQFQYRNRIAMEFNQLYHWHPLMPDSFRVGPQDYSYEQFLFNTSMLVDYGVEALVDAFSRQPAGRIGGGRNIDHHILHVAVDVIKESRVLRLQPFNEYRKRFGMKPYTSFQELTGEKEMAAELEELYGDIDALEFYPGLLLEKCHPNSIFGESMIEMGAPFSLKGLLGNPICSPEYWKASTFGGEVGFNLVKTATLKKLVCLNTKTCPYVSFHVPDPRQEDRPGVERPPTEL", "assay": "Cyclooxygenase COX-1 inhibition assay", "assay_type": "biochemical"}, "[9]": {"tested_on": "prostaglandin E2-induced paw edema", "assay": "Prostaglandin E2-induced paw edema", "conditions": "20 mg/kg, 4th hour (maximal)"}, "[10]": {"tested_on": "SOD", "assay": "In vivo antioxidant: SOD activity in brain, heart, liver", "parameters": "species or system mice", "conditions": "for SOD activity: D-galactose aging mice"}, "[11]": {"tested_on": "carrageenan-induced paw edema", "assay": "Carrageenan-induced paw edema", "assay_type": "in vivo, mice", "procedure": "Mice of both sexes (25–30 g) were used for in vivo anti-inflammatory activity of test samples on the carrageenan-induced inflammation model ([Munir et al., 2020]). Mice were distributed into five groups, with eight animals in each group, divided at random. Group-I served as the negative control and received DMSO at a dose of 10 mL/kg body weight. Group-II served as a positive control, which received aspirin at a dose of 100 mg/kg body weight. […] Each mouse received 1 percent (w/v) saline solution (0.05 mL) of carrageenan in the sub-planter region after a 30-min interval. The paw edema volume was determined using a plethysmometer (LE 7500-plan lab S.L) at 1–5 h intervals after carrageenan was given. […] The percentages of inhibition of inflammation were calculated using the formula given below: % inhibition=EC−ET/EC×100, where “EC” is the average edema of control and “ET” is the edema of the tested group."}}}
{"smiles": "Cc1cnc(O)nc1O", "note": "[Compound 1, 5-methylpyrimidine-24,4-diol]", "values": [{"measurement": "GSH-Px activity in brain, heart and liver", "setting": "[1]", "value": "enhances the activity of GSH-Px"}, {"measurement": "Percentage inhibition of bradykinin-induced paw edema", "setting": "[2]; 20 mg/kg, initial hour", "value": "9.20 ± 1.12", "unit": "%"}, {"measurement": "Activity against bradykinin-induced paw edema", "setting": "[2]; low doses", "value": "no activity"}, {"measurement": "DPPH IC50", "setting": "[3]", "value": 0.90, "unit": "µg/mL"}, {"measurement": "DPPH % inhibition", "setting": "[3]; 62.5 µg/mL", "value": "75.00 ± 1.15", "unit": "%"}, {"measurement": "DPPH % inhibition", "setting": "[3]; 125 µg/mL", "value": "78.67 ± 0.89", "unit": "%"}, {"measurement": "DPPH % inhibition", "setting": "[3]; 250 µg/mL", "value": "83.00 ± 0.58", "unit": "%"}, {"measurement": "DPPH % inhibition", "setting": "[3]; 500 µg/mL", "value": "87.03 ± 0.23", "unit": "%"}, {"measurement": "DPPH % inhibition", "setting": "[3]; 1,000 µg/mL", "value": "93.33 ± 0.49", "unit": "%"}, {"measurement": "Percentage inhibition of histamine-induced paw edema", "setting": "[4]", "value": "28.12 ± 0.62", "unit": "%"}, {"measurement": "MDA concentration", "setting": "[5]; brain", "value": 1.15, "unit": "nmol/mL"}, {"measurement": "MDA concentration", "setting": "[5]; heart", "value": 0.8, "unit": "nmol/mg protein"}, {"measurement": "MDA concentration", "setting": "[5]; liver", "value": 0.4, "unit": "nmol/mg protein"}, {"measurement": "ABTS IC50", "setting": "[6]", "value": 0.98, "unit": "µg/mL"}, {"measurement": "ABTS % inhibition", "setting": "[6]; 62.5 µg/mL", "value": "75.90 ± 0.48", "unit": "%"}, {"measurement": "ABTS % inhibition", "setting": "[6]; 125 µg/mL", "value": "79.03 ± 0.48", "unit": "%"}, {"measurement": "ABTS % inhibition", "setting": "[6]; 250 µg/mL", "value": "84.90 ± 0.96", "unit": "%"}, {"measurement": "ABTS % inhibition", "setting": "[6]; 500 µg/mL", "value": "87.65 ± 1.34", "unit": "%"}, {"measurement": "ABTS % inhibition", "setting": "[6]; 1,000 µg/mL", "value": "91.58 ± 1.12", "unit": "%"}, {"measurement": "Percentage inhibition of leukotriene-induced paw edema", "setting": "[7]; 1 h", "value": "53.00 ± 1.10", "unit": "%"}, {"measurement": "Percentage inhibition of leukotriene-induced paw edema", "setting": "[7]; 2 h", "value": "59.50 ± 0.92", "unit": "%"}, {"measurement": "Percentage inhibition of leukotriene-induced paw edema", "setting": "[7]; 3 h", "value": "62.0 ± 0.70", "unit": "%"}, {"measurement": "Percentage inhibition of leukotriene-induced paw edema", "setting": "[7]; 4 h", "value": "54.84 ± 0.92", "unit": "%"}, {"measurement": "Percentage inhibition of leukotriene-induced paw edema", "setting": "[7]; 5 h", "value": "41.43 ± 1.10", "unit": "%"}, {"measurement": "inhibition at 62.5 µg/mL", "setting": "[8]; 62.50 μg/mL, read-out: % COX-1 inhibition", "value": "45.8 ± 0.9", "unit": "%"}, {"measurement": "inhibition at 125 µg/mL", "setting": "[8]; 125 µg/mL, read-out: % COX-1 inhibition", "value": "55.4 ± 0.2", "unit": "%"}, {"measurement": "inhibition at 250 µg/mL", "setting": "[8]; 250 µg/mL", "value": "60.6 ± 0.63", "unit": "%"}, {"measurement": "inhibition at 500 µg/mL", "setting": "[8]; 500 µg/mL, read-out: % COX-1 inhibition", "value": "66.5 ± 0.9", "unit": "%"}, {"measurement": "inhibition at 1000 µg/mL", "setting": "[8]; 1,000 µg/mL", "value": "73.1 ± 1.04", "unit": "%"}, {"measurement": "Percentage inhibition of prostaglandin E2-induced paw edema", "setting": "[9]", "value": "82.0 ± 0.34", "unit": "%"}, {"measurement": "SOD activity", "setting": "[10]; brain, high-dosage group", "value": 95, "unit": "U/mL"}, {"measurement": "SOD activity", "setting": "[10]; heart, compound 1 (10 mg) group", "value": 140.0, "unit": "U/mg proteins"}, {"measurement": "SOD activity", "setting": "[10]; heart, high-dosage group", "value": 180.0, "unit": "U/mg proteins"}, {"measurement": "SOD activity", "setting": "[10]; liver, high-dosage group", "value": 890.0, "unit": "U/mg protein"}, {"measurement": "SOD activity compared to the model group", "setting": "[10]; p < 0.05, D-galactose aging mice", "value": "higher"}, {"measurement": "Percentage inhibition of paw edema", "setting": "[11]; dose 5 mg/kg, 1 h", "value": "46.72 ± 2.63", "unit": "ns %"}, {"measurement": "Percentage inhibition of paw edema", "setting": "[11]; dose 5 mg/kg, 2 h", "value": "50.46 ± 2.52", "unit": "%"}, {"measurement": "Percentage inhibition of paw edema", "setting": "[11]; dose 5 mg/kg, 3 h", "value": "53.58 ± 1.33", "unit": "%"}, {"measurement": "Percentage inhibition of paw edema", "setting": "[11]; dose 5 mg/kg, 4 h", "value": "52.37 ± 1.46", "unit": "%"}, {"measurement": "Percentage inhibition of paw edema", "setting": "[11]; dose 5 mg/kg, 5 h", "value": "55.23 ± 1.61", "unit": "%"}, {"measurement": "Percentage inhibition of paw edema", "setting": "[11]; dose 10 mg/kg, 1 h", "value": "51.37 ± 2.23", "unit": "%"}, {"measurement": "Percentage inhibition of paw edema", "setting": "[11]; dose 10 mg/kg, 2 h", "value": "53.56 ± 3.57", "unit": "%"}, {"measurement": "Percentage inhibition of paw edema", "setting": "[11]; dose 10 mg/kg, 3 h", "value": "56.56 ± 1.57", "unit": "%"}, {"measurement": "Percentage inhibition of paw edema", "setting": "[11]; dose 10 mg/kg, 4 h", "value": "55.76 ± 2.62", "unit": "%"}, {"measurement": "Percentage inhibition of paw edema", "setting": "[11]; dose 10 mg/kg, 5 h", "value": "61.68 ± 2.77", "unit": "%"}, {"measurement": "Percentage inhibition of paw edema", "setting": "[11]; dose 20 mg/kg, 1 h", "value": "54.27 ± 3.06", "unit": "%"}, {"measurement": "Percentage inhibition of paw edema", "setting": "[11]; dose 20 mg/kg, 2 h", "value": "56.38 ± 1.67", "unit": "%"}, {"measurement": "Percentage inhibition of paw edema", "setting": "[11]; dose 20 mg/kg, 3 h", "value": "59.74 ± 2.67", "unit": "%"}, {"measurement": "Percentage inhibition of paw edema", "setting": "[11]; dose 20 mg/kg, 4 h", "value": "58.02 ± 1.95", "unit": "%"}]}
